Consider 15 compounds from patent US5861426A, “Nitro compounds of the formula A-Xi -NO2 and their compositions having anti-inflammatory, analgesic and anti-thrombotic activities” (Nicox S.A., priority 1994, dated 1999).

In one data set the test system is isolated rat aorta. Description: Vasodilative activity, inhibition of contraction induced by epinephrine. The settings on record: in vitro, 10^-5 to 10^-7 molar range. An excerpt: (§1) Example of the anti-cyclooxygenase (I), platelet anti-aggregating (II) and vasodilative (III) properties of the test compounds tested in vitro at concentrations in the molar range from 10^-5 to 10^-7 of the product in water/alcohol with the addition of small amounts of DMSO (dimethylsulphoxide). The activities are expressed as the potency ratio versus the natural product used as a unit standard, as stated in Table

The target in a further data set is T1, COX-1 (Bos taurus, UniProt O62664).
T1 construct: Endothelial cells of bovine aorta were used as a source of COX-1; endogenous in cells; host or cells: bovine aortic endothelial cells
T1 sequence (O62664 25-600): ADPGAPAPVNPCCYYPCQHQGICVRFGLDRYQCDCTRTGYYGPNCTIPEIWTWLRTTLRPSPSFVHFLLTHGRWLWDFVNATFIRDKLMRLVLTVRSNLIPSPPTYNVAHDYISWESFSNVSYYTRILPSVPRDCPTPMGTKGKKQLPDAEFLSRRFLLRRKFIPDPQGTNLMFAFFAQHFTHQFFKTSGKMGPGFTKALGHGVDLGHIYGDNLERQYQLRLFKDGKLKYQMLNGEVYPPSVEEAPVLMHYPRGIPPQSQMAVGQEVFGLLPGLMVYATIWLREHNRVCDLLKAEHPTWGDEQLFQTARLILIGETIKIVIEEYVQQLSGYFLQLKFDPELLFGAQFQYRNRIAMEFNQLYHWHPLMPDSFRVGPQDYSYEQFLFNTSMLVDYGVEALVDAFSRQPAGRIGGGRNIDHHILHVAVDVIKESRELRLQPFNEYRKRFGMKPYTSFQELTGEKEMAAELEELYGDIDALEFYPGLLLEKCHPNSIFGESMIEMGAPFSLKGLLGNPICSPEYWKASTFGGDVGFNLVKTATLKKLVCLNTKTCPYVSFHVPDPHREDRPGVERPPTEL
Kind of data set: COX-1 inhibition in isolated cells. It counts as cell-based, bovine. The settings on record: endothelial cells of bovine aorta, read-out: COX-1 response, % of the controls with response variability; for remaining activity at 1000 µg/mL: 1.0 mg/ml. How it is done: (§2) The activity inhibiting cyclo-oxygenase was determined in isolated cells. Endothelial cells of bovine aorta were used as a source of COX-1 and macrophage line J774.2 as a source of COX-2. The same conditions described by Mitchell et al. (Proc. Nat. Acad. Sci. 90, 11693, 1993) for growth and the viability test were used.
(§3) In brief, the cells were incubated for 30 minutes with scalar concentrations of the test product and the substrate (arachidonic acid) was then added and incubated for another 15 minutes. Enzyme activity was determined radioimmunologically by measuring the formation of 6-keto-PGF 1 alpha. In the case of cell lines J.774.2, the cells were incubated for 12 hours with endotoxin to promote COX-2 formation.
(§4) Study of the anti-cyclooxygenase (COX-1/COX-2) properties in isolated cells.
(§5) Response expressed as a % of the controls with relative response variability.

The subject of a further data set is cyclo-oxygenase. Kind of data set: Anti-cyclooxygenase activity. It counts as cell-based. How it is done: as §2, §3, §1
A further data set concerns the target T2, COX-2 (Mus musculus, UniProt Q05769).
T2 construct: endogenous in cells; host or cells: J774.2 macrophages, 12 h with endotoxin
T2 sequence (Q05769 18-604): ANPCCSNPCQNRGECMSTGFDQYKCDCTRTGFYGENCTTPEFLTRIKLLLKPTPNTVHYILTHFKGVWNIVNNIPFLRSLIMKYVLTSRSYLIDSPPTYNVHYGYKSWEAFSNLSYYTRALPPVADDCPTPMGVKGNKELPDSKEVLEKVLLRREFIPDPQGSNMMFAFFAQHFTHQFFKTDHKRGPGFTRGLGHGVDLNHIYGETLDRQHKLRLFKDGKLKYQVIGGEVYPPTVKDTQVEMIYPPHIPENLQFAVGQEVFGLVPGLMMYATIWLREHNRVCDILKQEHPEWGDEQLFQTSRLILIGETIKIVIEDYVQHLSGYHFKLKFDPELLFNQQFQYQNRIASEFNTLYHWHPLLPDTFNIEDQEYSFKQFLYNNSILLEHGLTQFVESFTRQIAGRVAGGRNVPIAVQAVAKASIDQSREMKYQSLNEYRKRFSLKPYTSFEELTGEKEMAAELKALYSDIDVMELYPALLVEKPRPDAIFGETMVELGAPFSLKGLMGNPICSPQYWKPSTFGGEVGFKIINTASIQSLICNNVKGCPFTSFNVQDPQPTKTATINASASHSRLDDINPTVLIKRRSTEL
Description: COX-2 inhibition in isolated cells. The class given is cell-based. The settings on record: macrophage line J774.2 with endotoxin, read-out: COX-2 response, % of the controls with response variability; for remaining activity at 100 µg/mL: 0.1 mg/ml; for remaining activity at 1000 µg/mL: 1.0 mg/ml. The method, then: as §2, §3, §4, §5

A further data set relates to nitrosynthetase (NOS). Description: Nitrosynthetase (NOS) activity induced by LPS in rats. The class given is in vivo, rat. The settings on record: oral, LPS only = 100. How it is done:
The nitrosynthetase inhibition activity induced by lipopolysaccharide (LPS) was determined in rat neutrophils and stomach after administration of one of the test compounds and compared with that obtained after treatment of the suspension vehicle only.
In brief, Wistar rats fasting for 24 hours before treatment were orally administered the test product (10 mg/Kg) and intravenously (caudal vein) administered LPS (5 mg/Kg).
Four hours later the animals were sacrificed and the blood--for neutrophils isolation--and the stomach taken.
Enzyme activity was determined in accordance with the method described by Assreuy et al. (Br. J. Pharmacol. 108, 833, 1993).
Study of the inhibitory properties of the nitrosynthetase (NOS) activity induced by liposaccharide (LPS) in rats using oral doses ranging from 5 to 20 mg/Kg suspended in a carboxymethylcellulose base.

Another data set concerns gastropathy. Kind of data set: Gastric tolerance, severity of induced gastropathy. The settings on record: rats, oral 3 to 30 mg/Kg in carboxymethylcellulose; natural product = 1.0. The method, then: Gastric tolerance was measured by oral administration to rats assessing the severity of the gastropathy induced in accordance with the criteria described by Wallace et al. (Am. J. Physiol. 259, G642, 1990).
Study of the anti-inflammatory (I) and analgesic (II) properties (pharmacodynamics) and gastrointestinal tolerance (III) (toxicity) of the test compounds after oral administration of doses ranging from 3 to 30 mg/Kg in carboxymethylcellulose suspensions and constructing dose-responsecurves.
Activities are expressed as the potency ratio compared to the natural product used as a unit standard. The nitroderivative is that of the shown examples, the natural reference compound is that shown as a reference.

The subject of another data set is Swiss mice. Kind of data set: Analgesic activity (Hendershot et al.). The settings on record: oral 3 to 30 mg/Kg in carboxymethylcellulose, natural product = 1.0. The class given is in vivo.
Data set [1] has as its system human platelets stimulated by thrombin. Description: Platelet anti-aggregating activity in vitro. It counts as cell-based. Conditions: 10^-5 to 10^-7 molar range, natural product = 1.0.
Text: as §1

The test system of another data set is carrageenin-oedema. Kind of data set: Anti-inflammatory activity, carrageenin-oedema method. It counts as in vivo. Conditions: rats, oral 3 to 30 mg/Kg in carboxymethylcellulose; natural product = 1.0. Background: Carrageenan injected into the paw causes an acute inflammation.

Description for Swiss mice: (§6) Study of the anti-inflammatory (I) and analgesic (II) properties (pharmacodynamics) and gastrointestinal tolerance (III) (toxicity) of the test compounds after oral administration of doses ranging from 3 to 30 mg/Kg in carboxymethylcellulose suspensions and constructing dose-responsecurves. […] Activities are expressed as the potency ratio compared to the natural product used as a unit standard.
Description for carrageenin-oedema: as §6

In the case of `CC(=O)Oc1ccccc1C(=O)O` [ASPIRIN, acetylsalicylic acid, reference compound], the “vasodilative (III), % of inhibitory action of the vasospasm induced by epinephrine” value in the data set with isolated rat aorta was “inactive”.

On to `O=C(Cc1ccccc1Nc1c(Cl)cccc1Cl)OCCCCO[N+](=O)[O-]` [DICLOFENAC NITROXYBUTYLESTER, reference compound], for which the remaining activity at 100 µg/mL on COX-1 (0.1 mg/ml) is 45 ± 22%. Further, the remaining activity at 1000 µg/mL at COX-1 is 24 ± 10%. Further, the “direct inhibition of cyclo-oxygenase COX-1 and COX-2” value in the data set on cyclo-oxygenase (Table 4 data) is “capable of directly inhibiting cyclo-oxygenase COX-1 and COX-2”. On COX-2, the remaining activity at 100 µg/mL stood at 68 ± 11% and the remaining activity at 1000 µg/mL came to 41 ± 11%. Besides, in the data set on nitrosynthetase (NOS), the “NOS, neutrophils; inhibition relative to the group treated with LPS only” value is on record as 49 and the “NOS, stomach; inhibition relative to the group treated with LPS only” value is reported as 37.

`O=C(O)Cc1ccccc1Nc1c(Cl)cccc1Cl` [DICLOFENAC, reference compound]: in the data set with isolated rat aorta, the “vasodilative (III), % of inhibitory action of the vasospasm induced by epinephrine” value is “inactive”.

Turning to `CC(=O)Oc1ccccc1C(=O)OCCOCCO[N+](=O)[O-]` [Example 1a, 2-acetoxy-benzoate of 2-[2-(nitroxy)ethoxy]ethyl], in the data set on gastropathy, the “gastrointestinal tolerance (III) (toxicity), potency ratio versus natural reference product” value stood at 0.2. Also, the “analgesic properties (II), potency ratio versus natural reference product” value in the data set with Swiss mice is listed as 1.1. In addition, in data set [1], the “platelet anti-aggregating (II), potency ratio versus natural product” value stood at 3.0. For the same compound, the “anti-cyclooxygenase (I), potency ratio versus natural product” value in the data set with cyclo-oxygenase (in vitro, 10^-5 to 10^-7 molar range, natural product = 1.0) is listed as 1.5. Also, the “anti-inflammatory properties (I), potency ratio versus natural reference product” value in the data set on carrageenin-oedema was determined as 1.2. Moreover, in the data set with isolated rat aorta, the “vasodilative (III), % of inhibitory action of the vasospasm induced by epinephrine” value is given as 60%.

On to `CC(C)Cc1ccc(C(C)C(=O)OCCOCCO[N+](=O)[O-])cc1` (centres unmarked) [Example 1d], for which, in the data set on gastropathy, the “gastrointestinal tolerance (III) (toxicity), potency ratio versus natural reference product” value is 0.1. In addition, the “analgesic properties (II), potency ratio versus natural reference product” value in the data set on Swiss mice was determined as 1.1. In the data set with carrageenin-oedema, the “anti-inflammatory properties (I), potency ratio versus natural reference product” value was determined as 1.0.

Take `CC(C(=O)OCCOCCO[N+](=O)[O-])c1ccc(-c2ccccc2)c(F)c1` (centres unmarked) [Example 1e]: the “gastrointestinal tolerance (III) (toxicity), potency ratio versus natural reference product” value in the data set with gastropathy came out at 0.1. Besides, the remaining activity at 1000 µg/mL at COX-1 amounted to 22 ± 3%. Moreover, the “analgesic properties (II), potency ratio versus natural reference product” value in the data set with Swiss mice was 1.0. In addition, on COX-2, the remaining activity at 100 µg/mL was found to be 47 ± 4% and the remaining activity at 1000 µg/mL came out at 18 ± 2%. Besides, the “anti-inflammatory properties (I), potency ratio versus natural reference product” value with carrageenin-oedema is reported as 1.0.

As to `O=C(c1ccccc1)c1ccc2n1CCC2C(=O)OCCOCCO[N+](=O)[O-]` (centres unmarked) [Example 1f], in the data set with gastropathy, the “gastrointestinal tolerance (III) (toxicity), potency ratio versus natural reference product” value is 0.1. In addition, in the data set on Swiss mice, the “analgesic properties (II), potency ratio versus natural reference product” value is given as 1.0. In addition, the “anti-inflammatory properties (I), potency ratio versus natural reference product” value with carrageenin-oedema was 1.0.

Regarding `CC(C(=O)OCCOCCO[N+](=O)[O-])c1ccc(C(=O)c2ccccc2)s1` (centres unmarked) [Example 1g], the “gastrointestinal tolerance (III) (toxicity), potency ratio versus natural reference product” value in the data set on gastropathy was determined as 0.1. Further, in the data set on Swiss mice, the “analgesic properties (II), potency ratio versus natural reference product” value is listed as 1.3. Further, in the data set with carrageenin-oedema, the “anti-inflammatory properties (I), potency ratio versus natural reference product” value was found to be 0.9.

In the case of `COc1ccc2cc(C(C)C(=O)OCCOCCO[N+](=O)[O-])ccc2c1` (centres unmarked) [Example 1h], the “gastrointestinal tolerance (III) (toxicity), potency ratio versus natural reference product” value in the data set with gastropathy is 0.1. In addition, the “analgesic properties (II), potency ratio versus natural reference product” value in the data set on Swiss mice is 1.3. Moreover, the “anti-inflammatory properties (I), potency ratio versus natural reference product” value in the data set with carrageenin-oedema came to 1.3.

On to `CC(C(=O)O)c1ccc(-c2ccccc2)c(F)c1` (centres unmarked) [FLURBIPROFEN, reference compound], for which the “analgesic properties (II), potency ratio versus natural reference product” value with Swiss mice worked out at 1.0. For the same compound, the “anti-inflammatory properties (I), potency ratio versus natural reference product” value in the data set on carrageenin-oedema came out at 1.0.

As to `CC(C)Cc1ccc(C(C)C(=O)O)cc1` (centres unmarked) [IBUPROFEN, reference compound], the “gastrointestinal tolerance (III) (toxicity), potency ratio versus natural reference product” value with gastropathy was 1.0. For the same compound, the “analgesic properties (II), potency ratio versus natural reference product” value in the data set on Swiss mice was determined as 1.0. For the same compound, the “anti-inflammatory properties (I), potency ratio versus natural reference product” value in the data set on carrageenin-oedema is listed as 1.0.

For `CC(C(=O)O)c1cccc(C(=O)c2ccccc2)c1` (centres unmarked) [KETOPROFEN, 2-(3-benzoyl)phenyl propionic acid, reference compound], the “vasodilative (III), % of inhibitory action of the vasospasm induced by epinephrine” value in the data set on isolated rat aorta is “inactive”.

Regarding `O=C(c1ccccc1)c1ccc2n1CCC2C(=O)O` (centres unmarked) [KETOROLAC, reference compound], the “gastrointestinal tolerance (III) (toxicity), potency ratio versus natural reference product” value in the data set with gastropathy is 1.0. Besides, the “analgesic properties (II), potency ratio versus natural reference product” value in the data set with Swiss mice worked out at 1.0. Further, the “anti-inflammatory properties (I), potency ratio versus natural reference product” value with carrageenin-oedema was 1.0.

For `CC(C(=O)OCCCCO[N+](=O)[O-])c1cccc(C(=O)c2ccccc2)c1` (centres unmarked) [NITROXYBUTYLKETOPROFEN, reference compound], in the data set on nitrosynthetase (NOS), the “NOS, neutrophils; inhibition relative to the group treated with LPS only” value is recorded as 55 and the “NOS, stomach; inhibition relative to the group treated with LPS only” value stood at 35.

Take `CC(C(=O)O)c1ccc(C(=O)c2ccccc2)s1` (centres unmarked) [TIAPROFENIC ACID, reference compound]: in the data set with gastropathy, the “gastrointestinal tolerance (III) (toxicity), potency ratio versus natural reference product” value was 1.0. Further, in the data set on Swiss mice, the “analgesic properties (II), potency ratio versus natural reference product” value was 1.0. Further, the “anti-inflammatory properties (I), potency ratio versus natural reference product” value in the data set with carrageenin-oedema stood at 1.0.
